According to US20190133128A1, “Fungicidal pyridazinones” (FMC Corporation, priority 2017, published 2019):

Columns and labels:
Format in all cases: in vivo
Phytophthora infestans = assay: whole plant or invertebrate; settings: for Test D disease control rating: tomato seedlings; for pest or weed control at 250 ppm: Phytophthora infestans, in Solanum lycopersicum, read-out: Test D disease control rating
Phakopsora pachyrhizi = assay: Test A: preventive spray on soybean seedlings, Asian soybean rust, visual disease rating; settings: for pest or weed control at 250 ppm: Phakopsora pachyrhizi
Botrytis cinerea = assay: Test C: preventive spray on tomato seedlings, gray mold, visual disease rating; settings: for pest or weed control at 250 ppm: Botrytis cinerea
Source text: (§1) General protocol for preparing test solutions for Tests AG: the test compounds were first dissolved in acetone in an amount equal to 3% of the final volume and then suspended at the desired concentration (in ppm) in acetone and purified water (50/50 mix by volume) containing the surfactant PEG400 (polyhydric alcohol esters). The resulting test suspensions were then used in Tests AG. Compounds were sprayed at a concentration of 250 ppm or other indicated rate to the point of run-off on the test plants. The test solution was sprayed to the point of run-off on tomato seedlings. […] A dash (-) indicates no test results.

Zymoseptoria tritici = assay: Test E: preventive spray on wheat seedlings, wheat leaf blotch, visual disease rating; settings: for pest or weed control at 250 ppm: Zymoseptoria tritici
Source text: as §1, with “wheat” for “tomato”

[1] = system: Erysiphe graminis f. sp. tritici; assay: Test G: preventive spray on wheat seedlings, wheat powdery mildew, visual disease rating; settings: for pest or weed control at 250 ppm: Blumeria graminis, 192 h
Source text: as §1, with “wheat” for “tomato”

[2] = system: Puccinia recondita f. sp. tritici; assay: Test F: preventive spray on wheat seedlings, wheat leaf rust, visual disease rating; settings: for pest or weed control at 250 ppm: Puccinia recondita
Source text: as §1, with “wheat” for “tomato”, “seedlings. The following day the seedlings were inoculated with a spore suspension of Puccinia recondita f. sp. tritici;” for “seedlings.”

[3] = 250 ppm, 100 = 100% disease control, 0 = no control

Cn1ncc(O)c(C(=O)Nc2ccc(F)cc2)c1=O [Compound 40]
Test D disease control rating (Phytophthora infestans; [3]): 73%
Test A disease control rating (Phakopsora pachyrhizi; [3]): 56%
Test C disease control rating (Botrytis cinerea; [3]): 96%
Test E disease control rating (Zymoseptoria tritici; [3]): 96%
Test G disease control rating [1, 3]: 92%
Test F disease control rating [2, 3]: 95%

Cn1ncc(Cl)c(C(=O)Nc2ccc(OC(F)(F)F)cc2)c1=O [Compound 41, 5-Chloro-2,3-dihydro-2-methyl-3-oxo-N-[4-(trifluoromethoxy)phenyl]-4-pyridazinecarboxamide]
pest or weed control at 250 ppm (Phytophthora infestans): 0%
pest or weed control at 250 ppm (Phakopsora pachyrhizi; [3]): 87%
pest or weed control at 250 ppm (Botrytis cinerea; [3]): 0%
pest or weed control at 250 ppm (Zymoseptoria tritici; [3]): 97%
pest or weed control at 250 ppm [1, 3]: 0%
pest or weed control at 250 ppm [2, 3]: 89%

Cn1ncc(Br)c(C(=O)Nc2ccc(OC(F)(F)F)cc2)c1=O [Compound 42, 5-Bromo-2,3-dihydro-2-methyl-3-oxo-N-[4-(trifluoromethoxy)phenyl]-4-pyridazinecarboxamide]
pest or weed control at 250 ppm (Phytophthora infestans): 0%
pest or weed control at 250 ppm (Phakopsora pachyrhizi; [3]): 79%
pest or weed control at 250 ppm (Botrytis cinerea; [3]): 0%
pest or weed control at 250 ppm (Zymoseptoria tritici; [3]): 99%
pest or weed control at 250 ppm [1, 3]: 0%
pest or weed control at 250 ppm [2, 3]: 86%

Cn1ncc(Cl)c(C(=O)Nc2ccc(F)cc2)c1=O [Compound 43]
Test D disease control rating (Phytophthora infestans; [3]): 68%
Test A disease control rating (Phakopsora pachyrhizi; [3]): 78%
Test C disease control rating (Botrytis cinerea; [3]): 79%
Test E disease control rating (Zymoseptoria tritici; [3]): 4%
Test G disease control rating [1, 3]: 0%
Test F disease control rating [2, 3]: 97%

Cn1ncc(O)c(C(=O)Nc2cccc(-c3ccc(Cl)cc3)c2)c1=O [Compound 44]
Test D disease control rating (Phytophthora infestans; [3]): 0%
Test A disease control rating (Phakopsora pachyrhizi; [3]): 0%
Test C disease control rating (Botrytis cinerea; [3]): 0%
Test E disease control rating (Zymoseptoria tritici; [3]): 0%
Test G disease control rating [1, 3]: 0%
Test F disease control rating [2, 3]: 86%

Cn1ncc(O)c(C(=O)Nc2ccc(-c3ccc(F)cc3)cc2)c1=O [Compound 46]
Test D disease control rating (Phytophthora infestans; [3]): 40%
Test A disease control rating (Phakopsora pachyrhizi; [3]): 77%
Test C disease control rating (Botrytis cinerea; [3]): 16%
Test E disease control rating (Zymoseptoria tritici; [3]): 0%
Test G disease control rating [1, 3]: 0%
Test F disease control rating [2, 3]: 80%

Cn1ncc(O)c(C(=O)Nc2ccc(OC(F)F)cc2)c1=O [Compound 47, N-[4-(Difluoromethoxy)phenyl]-2,3-dihydro-5-hydroxy-2-methyl-3-oxo-4-pyridazinecarboxamide]
pest or weed control at 250 ppm (Phytophthora infestans): 88%
pest or weed control at 250 ppm (Phakopsora pachyrhizi; [3]): 38%
pest or weed control at 250 ppm (Botrytis cinerea; [3]): 0%
pest or weed control at 250 ppm (Zymoseptoria tritici; [3]): 77%
pest or weed control at 250 ppm [1, 3]: 0%
pest or weed control at 250 ppm [2, 3]: 99%

Cn1ncc(O)c(C(=O)Nc2ccc(S(C)(=O)=O)cc2)c1=O [Compound 49]
Test D disease control rating (Phytophthora infestans; [3]): 0%
Test A disease control rating (Phakopsora pachyrhizi; [3]): 0%
Test C disease control rating (Botrytis cinerea; [3]): 0%
Test E disease control rating (Zymoseptoria tritici; [3]): 0%
Test G disease control rating [1, 3]: 0%
Test F disease control rating [2, 3]: 68%

Cn1ncc(O)c(C(=O)Nc2ccc(C(F)(F)F)cc2F)c1=O [Compound 50, N-[2-Fluoro-4-(trifluoromethyl)phenyl]-2,3-dihydro-5-hydroxy-2-methyl-3-oxo-4-pyridazinecarboxamide]
pest or weed control at 250 ppm (Phytophthora infestans): 99%
pest or weed control at 250 ppm (Phakopsora pachyrhizi; [3]): 0%
pest or weed control at 250 ppm (Botrytis cinerea; [3]): 85%
pest or weed control at 250 ppm (Zymoseptoria tritici; [3]): 98%
pest or weed control at 250 ppm [1, 3]: 98%
pest or weed control at 250 ppm [2, 3]: 100%

Cn1ncc(Cl)c(C(=O)Nc2ccc(OC(F)(F)F)cc2F)c1=O [Compound 51]
Test D disease control rating (Phytophthora infestans; 125 ppm): 57%
Test A disease control rating (Phakopsora pachyrhizi; 125 ppm): 99%
Test C disease control rating (Botrytis cinerea; 125 ppm): 97%
Test E disease control rating (Zymoseptoria tritici; 125 ppm): 89%
Test G disease control rating ([1]; 125 ppm): 0%
Test F disease control rating ([2]; 125 ppm): 96%

Cn1ncc(Cl)c(C(=O)Nc2ccc(C(F)(F)F)cc2F)c1=O [Compound 52]
Test D disease control rating (Phytophthora infestans; 160 ppm): 90%
Test A disease control rating (Phakopsora pachyrhizi; 160 ppm): 97%
Test C disease control rating (Botrytis cinerea; 160 ppm): 59%
Test E disease control rating (Zymoseptoria tritici; 160 ppm): 99%
Test G disease control rating ([1]; 160 ppm): 39%
Test F disease control rating ([2]; 160 ppm): 99%

Cn1ncc(OC(=O)C(C)(C)C)c(C(=O)Nc2ccc(OC(F)(F)F)cc2)c1=O [Compound 53]
Test D disease control rating (Phytophthora infestans; [3]): 99%
Test A disease control rating (Phakopsora pachyrhizi; [3]): 79%
Test C disease control rating (Botrytis cinerea; [3]): 39%
Test E disease control rating (Zymoseptoria tritici; [3]): 79%
Test G disease control rating [1, 3]: 98%
Test F disease control rating [2, 3]: 100%

Cc1cccc(NC(=O)c2c(O)cnn(C)c2=O)c1 [Compound 54]
Test D disease control rating (Phytophthora infestans; [3]): 0%
Test A disease control rating (Phakopsora pachyrhizi; [3]): 0%
Test C disease control rating (Botrytis cinerea; [3]): 0%
Test E disease control rating (Zymoseptoria tritici; [3]): 0%
Test G disease control rating [1, 3]: 0%
Test F disease control rating [2, 3]: 95%

COc1cccc(NC(=O)c2c(O)cnn(C)c2=O)c1 [Compound 55]
Test D disease control rating (Phytophthora infestans; [3]): 0%
Test A disease control rating (Phakopsora pachyrhizi; [3]): 0%
Test C disease control rating (Botrytis cinerea; [3]): 0%
Test E disease control rating (Zymoseptoria tritici; [3]): 0%
Test G disease control rating [1, 3]: 0%
Test F disease control rating [2, 3]: 89%

Cn1ncc(O)c(C(=O)Nc2cccc(C(F)(F)F)c2)c1=O [Compound 56]
Test D disease control rating (Phytophthora infestans; [3]): 61%
Test A disease control rating (Phakopsora pachyrhizi; [3]): 0%
Test C disease control rating (Botrytis cinerea; [3]): 0%
Test E disease control rating (Zymoseptoria tritici; [3]): 0%
Test G disease control rating [1, 3]: 35%
Test F disease control rating [2, 3]: 92%

Cn1ncc(O)c(C(=O)Nc2cccc(OC(F)(F)F)c2)c1=O [Compound 57]
Test D disease control rating (Phytophthora infestans; [3]): 0%
Test A disease control rating (Phakopsora pachyrhizi; [3]): 0%
Test C disease control rating (Botrytis cinerea; [3]): 0%
Test E disease control rating (Zymoseptoria tritici; [3]): 8%
Test G disease control rating [1, 3]: 98%
Test F disease control rating [2, 3]: 84%

COc1cnn(C)c(=O)c1C(=O)Nc1ccc(Br)cc1 [Compound 59]
Test D disease control rating (Phytophthora infestans; [3]): 0%
Test A disease control rating (Phakopsora pachyrhizi; [3]): 0%
Test C disease control rating (Botrytis cinerea; [3]): 0%
Test E disease control rating (Zymoseptoria tritici; [3]): 0%
Test G disease control rating [1, 3]: 0%
Test F disease control rating [2, 3]: 0%

O=C(Nc1ccc(OC(F)(F)F)cc1)c1c(O)cnn(-c2ccccc2)c1=O [Compound 60]
Test D disease control rating (Phytophthora infestans; [3]): 88%
Test A disease control rating (Phakopsora pachyrhizi; [3]): 0%
Test C disease control rating (Botrytis cinerea; [3]): 0%
Test E disease control rating (Zymoseptoria tritici; [3]): 92%
Test G disease control rating [1, 3]: 57%
Test F disease control rating [2, 3]: 88%

Cn1ncc(Cl)c(C(=O)Nc2cccc(OC(F)(F)F)c2)c1=O [Compound 63]
Test D disease control rating (Phytophthora infestans; 270 ppm): 53%
Test A disease control rating (Phakopsora pachyrhizi; 270 ppm): 59%
Test C disease control rating (Botrytis cinerea; 270 ppm): 53%
Test E disease control rating (Zymoseptoria tritici; 270 ppm): 98%
Test G disease control rating ([1]; 270 ppm): 48%
Test F disease control rating ([2]; 270 ppm): 86%

Cn1ncc(Cl)c(C(=O)Nc2cccc(C(F)(F)F)c2)c1=O [Compound 64]
Test D disease control rating (Phytophthora infestans; 265 ppm): 53%
Test A disease control rating (Phakopsora pachyrhizi; 265 ppm): 92%
Test C disease control rating (Botrytis cinerea; 265 ppm): 76%
Test E disease control rating (Zymoseptoria tritici; 265 ppm): 94%
Test G disease control rating ([1]; 265 ppm): 0%
Test F disease control rating ([2]; 265 ppm): 91%

O=C(Nc1ccc(OC(F)(F)F)cc1)c1c(O)cnn(-c2cccc(C(F)(F)F)c2)c1=O [Compound 71]
Test D disease control rating (Phytophthora infestans; [3]): 0%
Test A disease control rating (Phakopsora pachyrhizi; [3]): 12%
Test C disease control rating (Botrytis cinerea; [3]): 0%
Test E disease control rating (Zymoseptoria tritici; [3]): 0%
Test G disease control rating [1, 3]: 0%
Test F disease control rating [2, 3]: 0%

Cn1ncc(OC(=O)c2ccccc2)c(C(=O)N(C(=O)c2ccccc2)c2ccc(OC(F)(F)F)cc2)c1=O [Compound 81]
Test D disease control rating (Phytophthora infestans; [3]): 0%
Test A disease control rating (Phakopsora pachyrhizi; [3]): 0%
Test C disease control rating (Botrytis cinerea; [3]): 0%
Test E disease control rating (Zymoseptoria tritici; [3]): 67%
Test G disease control rating [1, 3]: 0%
Test F disease control rating [2, 3]: 98%

Cn1ncc(OS(C)(=O)=O)c(C(=O)Nc2ccc(OC(F)(F)F)cc2)c1=O [Compound 90]
Test D disease control rating (Phytophthora infestans; [3]): 78%
Test A disease control rating (Phakopsora pachyrhizi; [3]): 98%
Test C disease control rating (Botrytis cinerea; [3]): 60%
Test E disease control rating (Zymoseptoria tritici; [3]): 100%
Test G disease control rating [1, 3]: 0%
Test F disease control rating [2, 3]: 98%

Cn1ncc(O)c(C(=O)Nc2ccc(S(F)(F)(F)(F)F)cc2)c1=O [Compound 91, [4-[[[2,3-Dihydro-5-hydroxy-2-methyl-3-oxo-4-pyridazinyl]carbonyl]amino]phenyl]pentafluorosulfur]
pest or weed control at 250 ppm (Phytophthora infestans): 97%
pest or weed control at 250 ppm (Phakopsora pachyrhizi; [3]): 46%
pest or weed control at 250 ppm (Botrytis cinerea; [3]): 0%
pest or weed control at 250 ppm (Zymoseptoria tritici; [3]): 100%
pest or weed control at 250 ppm [1, 3]: 89%
pest or weed control at 250 ppm [2, 3]: 99%
